Data taken from patent US11181534B2, “Routine laboratory and point-of-care (POC) testing for hemostasis” (Bloodworks, priority 2014, dated 2021).

Key:
Factor VIII (FVIII) [1] = assay: FVIII Activity by manual one-stage assay in patient plasma; format: in vivo, human; conditions: FVIII Case #3, 45 min after Stimate; baseline 18.9%
Description: (§1) Blood samples were collected by venipuncture in 3.2% sodium citrate anticoagulant. Platelet poor plasma was separated by centrifugation per clinical protocols, snap frozen, and stored at −80 C until tested. FVIII Antigen was measured by ELISA (FVIII-AG ELISA kit, Affinity Biologicals) per the manufacturer's instructions. FVIII Activity was measured by manual one-stage assay per the clinical protocol of the Bloodworks Northwest Hemostasis Reference Laboratory. The Koate DVI (Kedrion) coefficient (in vivo) was ascertained by measuring FVIII Antigen and FVIII Activity samples from patients undergoing clinically-indicated Koate DVI kinetic studies and calculating the Activity:Antigen ratio. Pooled normal plasma (Precision BioLogic), normal reference plasmas (Precision BioLogic, Siemens), abnormal reference plasma (Siemens), samples from healthy blood donors, and FVIII-deficient plasma (Affinity Biologicals, Siemens) were used in assays as standards and controls.

Factor VIII (FVIII) [2] = assay: FVIII Antigen by ELISA (FVIII-AG ELISA kit) in patient plasma; format: in vivo, human
Description: as §1

Factor IX (FIX) [3] = assay: FIX Activity by manual one-stage assay in patient plasma; format: in vivo, human; conditions: FIX Case #1, at presentation, 6 days after Benefix
Description: (§2) Blood samples were collected by venipuncture in 3.2% sodium citrate anticoagulant. Platelet poor plasma was separated by centrifugation per clinical protocols, snap frozen, and stored at −80 C until tested. FIX Antigen was measured by FIX-EIA paired antibody ELISA (Affinity Biologicals). FIX-deficient plasma (Affinity Biologicals) was used as a negative control and diluent. FIX Activity was performed via manual one-stage assay per the clinical laboratory protocols of the Bloodworks Northwest Hemostasis Reference Laboratory. FIX-deficient plasma (Siemens) was used as a diluent and negative control. The Benefix (Wyeth Pharmaceuticals) coefficient was ascertained by serial dilution of Benefix into FIX-deficient plasma (Affinity Biologicals), performance of both the FIX Antigen and Activity assays, and calculating the Activity:Antigen ratio.

Factor IX (FIX) [4] = assay: FIX Antigen by FIX-EIA paired antibody ELISA in patient plasma; format: in vivo, human; conditions: FIX Case #1, patient with severe Hemophilia B, at presentation, 6 days after Benefix
Description: as §2

Factor IX (FIX) [5] = assay: FIX coefficient, Activity:Antigen ratio (dilution into FIX-deficient plasma / normal plasma standards); format: biochemical, human
Description: as §2
The patient then received a dose of Alprolix followed by a blood draw 24 hours later. The Alprolix drug coefficient was not able to be experimentally determined due to limited drug availability. In lieu of this, we used normal plasma standards and experimentally determined the coefficient of normal human FIX to be 1.1. We then assumed the drug coefficient for Alprolix to be similar to naturally occurring FIX, and determined the patient's FIX level by: FIX Activity=(Base FIX Activity)+[(Measured FIX Antigen−Base FIX Antigen)×(Patient's FIX Coefficient)].

Factor XI (FXI) = assay: Factor XI Coefficient, serial dilution of normal reference plasma into FXI-deficient plasma; format: biochemical, human; conditions: plasma pooled from healthy subjects
Description: Commercially-available normal and abnormal (FVII- and FXI-deficient) plasmas (Siemens) were obtained to be tested as experimental samples. Factor VII and Factor XI Coefficients were determined by serial dilution of normal reference plasma (Precision BioLogic) into FVII-deficient and FXI-deficient plasmas (Affinity Biologicals).
We tested two plasmas, one with normal levels of FXI, and one deficient in FXI (approximately 1/3 FXI activity). We experimentally determined using plasma pooled from healthy subjects that the coefficient of natural FXI is 0.82. The FXI Activity was then determined by: FXI Activity=[(Measured FXI Antigen)×(FXI Coefficient)].

NC(=O)CC[C@@H]1NC(=O)[C@H](Cc2ccccc2)NC(=O)[C@H](Cc2ccc(O)cc2)NC(=O)CCSSC[C@@H](C(=O)N2CCC[C@H]2C(=O)N[C@H](CCCN=C(N)N)C(=O)NCC(N)=O)NC(=O)[C@H](CC(N)=O)NC1=O [Stimate]
FVIII Activity (Measured) (Factor VIII (FVIII) [1]): 50.76% | FVIII Activity (Calculated) (Factor VIII (FVIII) [2]; FVIII Case #3, 45 min after Stimate, calculated with patient's FVIII coefficient 1.97, baseline 18.9%): 48.92% | Measured FVIII Antigen (FVIII:Ag) (after Stimate) (Factor VIII (FVIII) [2]; FVIII Case #3, patient with mild Hemophilia A, 45 min after Stimate, baseline 9.59 IU/dL): 24.83 IU/dL

Benefix: a different FIX replacement therapy (Wyeth Pharmaceuticals / Pfizer)
FIX Activity (Measured) (Factor IX (FIX) [3]): 4% | Measured FIX Antigen (FIX:Ag) (Factor IX (FIX) [4]): 8.0 IU/dL | drug coefficient (FIX Activity:Antigen ratio) (Factor IX (FIX) [5]; serial dilution of Benefix into FIX-deficient plasma): 2.1

natural FXI: FXI of plasma pooled from healthy subjects
coefficient of natural FXI (Factor XI (FXI)): 0.82

normal human FIX: naturally occurring FIX in normal plasma standards
coefficient of normal human FIX (Factor IX (FIX) [5]; normal plasma standards): 1.1
